This note sets out measurements from ChEMBL document CHEMBL5120860, “Ansellone J, a Potent in Vitro and ex Vivo HIV-1 Latency Reversal Agent Isolated from a Phorbas sp. Marine Sponge” (J Nat Prod, 2022).

For data set [1], the system named is Human immunodeficiency virus 1. Put plainly: Reversal of HIV-1 latency infected in GFP-fused human J-Lat 9.2 cells assessed as increase in GFP expression at 10 uM incubated for 24 hrs by flow cytometry analysis relative to control. The data set is classed as functional. (In general: In flow cytometry, cells or beads pass a laser one at a time.)
Data set [2] can be described thus: Inhibition of HIV-1 latency reversal in GFP-fused human J-lat 9.2 cells at 3 uM incubated for 24 hrs in presence of pan-PKC inhibitor Go 6983 by flow cytometry analysis relative to control. To be noted: Human immunodeficiency virus 1, J-Lat 9.2. Format: functional.
Data set [3] relates to Human immunodeficiency virus 1. Put plainly: Reversal of HIV-1 latency infected in GFP-fused human J-Lat 9.2 cells assessed as increase in GFP expression at 30 uM incubated for 24 hrs by flow cytometry analysis relative to control. The data set is classed as functional.
Data set [4] in a line: Inhibition of HIV-1 latency reversal in GFP-fused human J-lat 9.2 cells at 10 uM incubated for 24 hrs in presence of pan-PKC inhibitor Go 6983 by flow cytometry analysis relative to control. As to conditions: Human immunodeficiency virus 1, J-Lat 9.2. The data set is classed as functional.
Data set [5] has as its system Human immunodeficiency virus 1. Put plainly: Reversal of HIV-1 latency in human CD4+ T cells derived from cARC-suppressed donors with HIV assessed as increase in viral RNA copies measured per ml of supernatant at 1 uM incubated for 24 hrs by qRT-PCR analysis (reference value: 191 +/- 321). Format: functional, CD4+ve Th. (In qPCR the cycle at which signal appears reflects the starting amount.)

For data set [6], the system named is Human immunodeficiency virus 1. Nature of the data set: Reversal of HIV-1 latency infected in GFP-fused human J-Lat 9.2 cells assessed as increase in GFP expression at 3 uM incubated for 24 hrs by flow cytometry analysis relative to control. The data set is classed as functional.
Data set [7] is described as follows: Inhibition of HIV-1 latency reversal in GFP-fused human J-lat 9.2 cells at 1 uM incubated for 24 hrs in presence of pan-PKC inhibitor Go 6983 by flow cytometry analysis relative to control. Format: functional. As to conditions: Human immunodeficiency virus 1, J-Lat 9.2.
The subject of data set [8] is Human immunodeficiency virus 1. Put plainly: Reversal of HIV-1 latency in human CD4+ T cells derived from cARC-suppressed donors with HIV assessed as fold increase in viral RNA copies measured per ml of supernatant at 1 uM incubated for 24 hrs by qRT-PCR analysis. The data set is classed as functional, CD4+ve Th.
Data set [9] in a line: Cytotoxicity against human CD4+ T cells derived from cARC-suppressed donors with HIV assessed as cell viability at 1 uM incubated for 24 hrs by trypan blue staining based analysis relative to control. Format: toxicity, CD4+ve Th. To be noted: primary CD4+ T cells from cART-suppressed donors with HIV, read-out: Activity.
The subject of data set [10] is Human immunodeficiency virus 1. Nature of the data set: Reversal of HIV-1 latency in human CD4+ T cells derived from cARC-suppressed donors with HIV assessed as increase in viral RNA copies measured per ml of supernatant at 10 uM incubated for 24 hrs by qRT-PCR analysis (reference value: 191 +/- 321). Format: functional, CD4+ve Th.
Data set [11] has as its system Human immunodeficiency virus 1. Put plainly: Reversal of HIV-1 latency in human CD4+ T cells derived from cARC-suppressed donors with HIV assessed as fold increase in viral RNA copies measured per ml of supernatant at 10 uM incubated for 24 hrs by qRT-PCR analysis. The data set is classed as functional, CD4+ve Th.
Data set [12] can be described thus: Cytotoxicity against human CD4+ T cells derived from cARC-suppressed donors with HIV assessed as cell viability at 10 uM incubated for 24 hrs by trypan blue staining based analysis relative to control. The data set is classed as toxicity, CD4+ve Th. As to conditions: primary CD4+ T cells from cART-suppressed donors with HIV, read-out: Activity.

On to `CC(=O)O[C@H]1C[C@]2(C)c3cc(C)c(O)cc3C(C)=CC(=O)[C@@H]2[C@@]2(C)CCCC(C)(C)[C@H]12`, for which, in data set [1], the Activity is listed as 36.8%. Besides, the inhibition (in general, how much of the control response was suppressed) at 3 µM in [2] is above 95%.

Consider `CC(=O)O[C@]1(C)C[C@@H](/C=C(\C)CCC=C(C)C)O[C@@]2(C=C(CO)[C@H]3CC(=O)C(C)=C[C@H]3O2)C1`, for which the Activity in data set [3] was 26.2%. Further, in [4], the inhibition at 10 µM is above 90%.

Turning to `CC1=C[C@H]2O[C@@H]([C@@H]3[C@@]4(C)CCCC(C)(C)[C@@H]4C=C[C@@]3(C)O)C=C(CO)[C@H]2CC1=O`, the Activity is recorded as 519 in [5] and 27.3% in data set [6]. Moreover, the inhibition at 1 µM in [7] is above 95%. In data set [8], the “fold change (FC)” value was found to be 2.7. In addition, the viability at 24 h, 1 µM in data set [9] is 82.4%.

With `CC(=O)O[C@@]12C[C@@H](C)[C@@]3(O)[C@@H](C=C(CO)C[C@]4(O)C(=O)C(C)=C[C@@H]34)[C@@H]1C2(C)C` [PROSTRATIN], the Activity in data set [10] is reported as 685; in data set [1], 11.1%; in data set [3] it was 11.7%. The “fold change (FC)” value in data set [11] amounted to 2.8. Moreover, the inhibition at 10 µM in data set [4] was above 90%. In addition, in [12], the viability at 24 h, 10 µM turned out to be 84%.
